{"source": "patent US6359054B1", "about": "“Polynucleotide compositions for intramuscular administration” (priority 1994, dated 2002)", "key": {"HSV-1 [1]": {"test_system": "HSV-1", "assay": "HSV-1 infectivity of medium of infected BHK cells", "format": "cell-based, Herpes Simplex Virus 1", "conditions": "oligonucleotide 3.0 μM"}, "HSV-1 [2]": {"test_system": "HSV-1", "parameters": "species or system mice", "conditions": "mouse, in vivo"}}, "note": "Several values for one entry are separate records, joined by “and”; a condition that tells them apart may be missing. Identical values can stand only once. {C11P} = undecylphosphate group; {Acr} = acridine conjugate", "data": [{"substance": "Free Anti-HSV: 12-chain oligonucleotide CGTTCCTCCTGU, 5′ undecylphosphate and 3′ acridine modified, complementary to HSV-1 splicing site (5' {C11P}, 3' {Acr}, sugars by position and backbone not given here)", "values": [{"measurement": "HSV-1 infectious titre n = 7", "setting": "HSV-1 [1]", "result": "50(±14) × 10^2 CPE50/ml"}, {"measurement": "% Survival", "setting": "HSV-1 [2]", "result": 7.0, "unit": "%"}, {"measurement": "Survived animals/Amount of Animals in a group", "setting": "HSV-1 [2]", "result": "1/10 and 0/10"}]}]}
